Test [1] deals with T1, α1β2γ2 GABAARs (rat α1, rat β2 and human γ2S) (UniProt P18507+P62813+P63138).
T1 construct: expressed in transfected cells; host or cells: Xenopus laevis oocytes
As to the kind of experiment: Two-electrode voltage clamp of α1β2γ2 GABAAR-expressing Xenopus oocytes. The test is classed as cell-based. The settings on record: for electrophysiological activity of propofol analogs (FIG. 59), words: Xenopus oocyte expression system; for potentiation of the GABA response: co-applied 3 μM GABA, MPC088 1 μM, MPD021 10 or 100 μM, MPC100 10 μM. From the text:
Purple and gray bars indicate periods of presentation of UV light (purple) and high-intensity visible light (High-Vis) (gray), respectively. […] These amplitude determination conditions are denoted by numbers beneath the waveform in FIG. 35d.
In each of the MPC088 experiments, the cis-dominant form was generated by UV light during static bathing. […] Numbers beneath the waveform in FIG. 2(c) denote amplitude determination conditions for that experiment.
(§1) Oocytes expressing α1β2γ2 receptors (rat α1, rat β2 and human γ2S) were prepared and studied by two-electrode voltage-clamp recording^58 (holding potential: −70 mV; amplifier: GeneClamp500B; Axon Instruments, Foster City, Calif.). Unless otherwise indicated, oocytes were superfused with Ringer solution (physiological saline) at a rate of ˜1 mL/min. The experiments of FIGS. 35d-e, 36c-e and 47 involved periods of static bathing, i.e., halted superfusion. The γ2(A79C) subunit was prepared by site-directed mutagenesis. Oocyte electrophysiological experiments were carried out in room light. A UV light-emitting diode (peak wavelength: 365 nm; Hamamatsu Photonics, Japan) and a microscope illuminator (white light; Schott Fostec, Auburn, N.Y.) provided UV and visible stimulating light. As measured at the position of the oocyte, the intensity of the UV light at 365 nm was 220 μW/mm^2. At 440 nm, the nominal strength of the visible (white) light (referred to as high-intensity visible light) was 28 μW/mm^2, and that of the ambient room illumination was 0.045 μW/mm^2. In all experiments, low-intensity visible light from the microscope illuminator (3 μW/mm^2 at 440 nm) was present at all times except those involving high-intensity visible illumination. Electrophysiological data were obtained using Clampex 8.2 (Axon Instruments), analyzed using Clampfit 10.0 (Axon Instruments) and OriginPro7.5 (OriginLab, Northampton, Mass.). All statistical analysis employed a two-sample t-test.
(In general: In two-electrode clamp one electrode senses voltage and the other passes current.)

The target of test [2] is T2, α1β2γ2(A79C) GABAARs (γ-79C) (UniProt P18507+P62813+P63138, A118C).
T2 construct: expressed in transfected cells; host or cells: Xenopus laevis oocytes
T2 sequence (P62813 28-455): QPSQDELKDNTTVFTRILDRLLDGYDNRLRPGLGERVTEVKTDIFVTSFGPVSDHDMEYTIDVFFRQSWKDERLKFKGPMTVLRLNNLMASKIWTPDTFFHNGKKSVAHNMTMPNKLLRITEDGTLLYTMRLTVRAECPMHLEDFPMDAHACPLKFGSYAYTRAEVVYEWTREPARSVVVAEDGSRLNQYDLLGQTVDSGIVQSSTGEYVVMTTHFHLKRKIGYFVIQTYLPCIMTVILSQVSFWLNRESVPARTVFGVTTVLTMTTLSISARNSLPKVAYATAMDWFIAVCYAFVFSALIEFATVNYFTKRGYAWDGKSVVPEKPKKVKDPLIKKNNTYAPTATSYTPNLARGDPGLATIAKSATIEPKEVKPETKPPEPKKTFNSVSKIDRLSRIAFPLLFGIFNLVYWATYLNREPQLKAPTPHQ
T2 sequence (P63138 25-474 limits assumed): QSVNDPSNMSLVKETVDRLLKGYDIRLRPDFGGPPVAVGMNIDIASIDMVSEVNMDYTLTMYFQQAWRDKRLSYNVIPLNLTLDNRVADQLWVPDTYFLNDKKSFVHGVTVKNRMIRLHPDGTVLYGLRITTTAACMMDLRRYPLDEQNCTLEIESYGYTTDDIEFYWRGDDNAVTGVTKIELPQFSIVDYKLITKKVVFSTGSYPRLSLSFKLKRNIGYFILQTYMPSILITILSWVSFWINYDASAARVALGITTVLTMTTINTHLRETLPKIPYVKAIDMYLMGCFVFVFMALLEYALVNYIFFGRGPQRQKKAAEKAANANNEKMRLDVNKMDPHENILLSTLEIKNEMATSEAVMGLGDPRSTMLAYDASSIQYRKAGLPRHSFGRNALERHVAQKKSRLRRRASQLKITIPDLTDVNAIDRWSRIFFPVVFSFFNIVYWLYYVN
T2 sequence (P18507 40-467 isoform P18507-1 A118C limits assumed): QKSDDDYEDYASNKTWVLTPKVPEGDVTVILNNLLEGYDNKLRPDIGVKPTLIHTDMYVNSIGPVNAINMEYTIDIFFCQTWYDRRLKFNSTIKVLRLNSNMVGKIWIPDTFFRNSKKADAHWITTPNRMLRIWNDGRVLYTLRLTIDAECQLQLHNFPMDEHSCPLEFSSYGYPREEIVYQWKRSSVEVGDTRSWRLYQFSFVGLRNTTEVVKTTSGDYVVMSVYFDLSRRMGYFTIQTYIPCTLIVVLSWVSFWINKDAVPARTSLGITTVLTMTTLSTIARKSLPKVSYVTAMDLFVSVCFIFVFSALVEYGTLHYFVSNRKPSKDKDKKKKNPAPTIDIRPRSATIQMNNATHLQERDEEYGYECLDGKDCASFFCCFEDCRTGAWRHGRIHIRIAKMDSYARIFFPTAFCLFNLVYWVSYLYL
The experiment in a line: Tethering to γ-79C GABAAR-expressing oocytes, voltage clamp. Format: cell-based, rat, human. The method, then:
as §1, with “μW/mm^2.” for “μW/mm^2. In all experiments, low-intensity visible light from the microscope illuminator (3 μW/mm^2 at 440 nm) was present at all times except those involving high-intensity visible illumination. Electrophysiological data were obtained using Clampex 8.2 (Axon Instruments), analyzed using Clampfit 10.0 (Axon Instruments) and OriginPro7.5 (OriginLab, Northampton, Mass.). All statistical analysis employed a two-sample t-test.”

Test [3] concerns GABAA receptors. As to the kind of experiment: Two-electrode voltage clamp of GABAA-expressing Xenopus oocytes. The test is classed as cell-based. The settings on record: for Hill coefficient n: Hill fit of normalized peak amplitudes; for EC50: Hill fit of peak amplitudes normalized to saturating muscimol response. An excerpt: (§2) Muscimol-biotin was synthesized wherein biotinamidoeaproic acid N-hydroxysuccinimide ester was reacted with muscimol in N-methylpyrrolidinone in the presence of diisopropylethylamine. The product was purified to homogeneity by reversed-phase HPLC. Peaks were detected by absorbance at 210 nm (FIG. 5), collected, and lyophilized to afford muscimol-biotin. The muscimol-biotin product was judged to be 97% pure by ^IH NMR spectroscopy, with no detectable contamination of the HPLC-purified product peak by muscimol (limit of detection: ca. 1%). Muscimol-biotin was dissolved in DMSO, stored at 3° C., and diluted to desired concentrations in frog Ringer before testing on the oocyte. Electrophysiology procedures used for Xenopus oocyte preparation, including GABAc expression, followed those described previously (Qian et al., 1998). Membrane currents were recorded from GABAc-expressing oocytes by 2-electrode voltage clamp apparatus. FIGS. 6-7 show results obtained for muscimol-biotin in GABAc and GABAA expressing oocytes.
(§3) FIGS. 6 and 7 show the effects of muscimol-biotin on GABAc- and GABAA expressing Xenopus oocytes. […] Right (FIG. 7): GABAA receptors. […] (B) Responses of another oocyte to 2.5 μM muscimol-biotin alone, and to co-application of 2.5 μM muscimol-biotin and 100 μM bicuculline. (C) Family of responses to varying concentrations of muscimol-biotin and to a single, saturating concentration of muscimol (200 μM thick trace) recorded from a single oocyte. (D) Normalized peak amplitudes (mean±SEM) of responses recorded from GABAA-expressing oocytes upon the application of muscimol (open circles) and muscimol-biotin (filled circles) (n=9).

Test [4] addresses T3, GABAc receptors (Homo sapiens, UniProt P24046).
T3 construct: expressed in transfected cells; host or cells: Xenopus oocytes
As to the kind of experiment: Two-electrode voltage clamp of GABAc-expressing Xenopus oocytes. Format: cell-based. The settings on record: for Hill coefficient n: Hill fit of normalized peak amplitudes; for EC50: Hill fit of peak amplitudes normalized to saturating muscimol response.
From the text: as §2, §3

In test [5] the test system is GABAARs of retinal ganglion cells. As to the kind of experiment: Whole-cell patch clamp of isolated retinal ganglion cells. Format: cell-based, rat. The settings on record: co-applied 100 μM PTX. The method, then: To test whether native neuronal GABAARs respond to MPC088, retinal ganglion cells (RGCs), a cell type known to abundantly express GABAARs (Ishida et al. (1988); Fischer et al. (1998); Wässle et al. (1998); Rotolo et al. (2003)), were examined. […] The cis-dominant preparation was obtained by pre-treating trans-dominant MPC088 with UV light for 5 min.
Inset: Aggregate data for direct activation by MPC088.
Experiments were conducted on enzymatically dissociated ganglion cells obtained from adult Sprague-Dawley rats (male and female, 6-16 weeks of age) (Charles River Laboratories, Wilmington, Mass.). Procedures for euthanasia, isolation of the retina, and the dissociation of retinal cells were as described previously (Ramsey et al. (2007) except that the period of retinal cell dissociation was shortened from 40 min to 20 min. Isolated ganglion cells were identified on the basis of their morphological appearance and the presence of a large voltage-gated sodium current. Whole-cell patch-clamp techniques similar to those described (Ramsey et al. (2007)) were used to record membrane current responses to test agents. The patch pipette with a resistance of 8-12 MΩ was pulled in two stages using a micro-electrode puller (Model PP830, Narishige Group, Tokyo, Japan). The pipette was filled with an intracellular solution containing 95 mM CsCH3SO3, 20 mM TEA-Cl, 10 mM glutamic acid, 1 mM BAPTA, 10 mM HEPES, 8 mM phosphocreatine di(tris), 1 mM MgATP and 0.2 mM Na2GTP; pH adjusted to 7.2 with CsOH. Cells were clamped at 0 mV (Axopatch 200B amplifier; Axon Instruments), and experimental runs were controlled by pCLAMP system software (Axon Instruments). Electrophysiological data were obtained in response to test compounds dissolved in physiological saline (Ringer solution) that consisted of 135 mM NaCl, 5 mM KCl, 2 mM CaCl2, 2 mM MgCl2, 10 mM glucose, and 5 mM HEPES, pH 7.4. Supplementation of aqueous test solutions with MPC088 was carried out by adding an aliquot of a stock solution containing the compound dissolved in dimethyl sulfoxide (DMSO). In all experiments, the amount of carrier DMSO present in the applied test solution was <1% (v/v). Test solutions were delivered from separate reservoirs by a multi-channel perfusion system. The same UV-LED used in the oocyte experiments was used for UV illumination of MPC088-supplemented test solutions. For preparation of cis-dominant MPC088, the test solution of initially trans-dominant compound underwent a 5-min UV illumination prior to its placement in the perfusion reservoir. All preparative procedures were performed in the dark, and the reservoirs and perfusion lines were light-protected with aluminum foil. As in the oocyte experiments, data were analyzed with Clampfit and plotted with Origin. Unless otherwise stated, numerical data from replicate experiments are presented as mean±SD, and all statistical analyses of data obtained from oocytes and from retinal ganglion cells employed a two-sample t-test.

T3 sequence (P24046 22-479): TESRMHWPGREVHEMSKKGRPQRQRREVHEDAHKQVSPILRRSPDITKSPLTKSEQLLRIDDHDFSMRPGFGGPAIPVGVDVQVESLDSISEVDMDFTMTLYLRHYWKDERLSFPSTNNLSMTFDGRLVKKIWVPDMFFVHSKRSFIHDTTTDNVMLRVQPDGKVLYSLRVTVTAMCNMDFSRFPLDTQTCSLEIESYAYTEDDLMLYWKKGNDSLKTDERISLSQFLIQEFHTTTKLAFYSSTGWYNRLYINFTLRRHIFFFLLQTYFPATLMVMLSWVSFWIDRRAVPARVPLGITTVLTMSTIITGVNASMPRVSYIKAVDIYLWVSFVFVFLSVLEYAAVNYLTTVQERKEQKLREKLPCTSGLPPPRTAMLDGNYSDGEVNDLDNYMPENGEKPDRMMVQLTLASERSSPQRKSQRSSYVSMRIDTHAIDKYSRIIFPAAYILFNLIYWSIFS
T1 sequence (P62813 28-455): as the sequence (P62813 28-455) above
T1 sequence (P63138 25-474 limits assumed): as the sequence (P63138 25-474 limits assumed) above
T1 sequence (P18507 40-467 isoform P18507-1 limits assumed): as the sequence (P18507 40-467 isoform P18507-1 A118C limits assumed) above, with C79A counted along it

Turning to `COC(=O)c1ccc(/N=N/c2ccc(CNC(=O)CCCc3cc(C(C)C)c(O)c(C(C)C)c3)cc2)cc1` [compound 9], in test [1], the “electrophysiological activity of propofol analogs (FIG. 59), words” value (from here on “electrophysiological activity”) was “poor activity”.
As for `CC(C)c1cc(CCCC(=O)O)cc(C(C)C)c1O` [compound 8], in test [1], the “electrophysiological activity” value is “poor activity”.
Take `CC(C)c1cc(CCCC(=O)NCc2ccc(/N=N/c3ccc(C(=O)NCCNC(=O)CCOCCOCCOCCOCCOCCOCCOCCOCCOCCOCCOCCOCCOCCOCCOCCOCCOCCOCCOCCOCCOCCOCCOCCOCCNC(=O)CCN4C(=O)C=CC4=O)cc3)cc2)cc(C(C)C)c1O` [MPC100, (E)-N-(82-(2,5-Dioxo-2,5-dihydro-1H-pyrrol-1-yl)-4,80-dioxo-7,10,13,16,19,22,25,28,31,34,37,40,43,46,49,52,55,58,61,64,67,70,73,76-tetracosaoxa-3,79-diazadooctacontyl)-4-((4-((4-(4-hydroxy-3,5-diisopropylphenyl)butanamido)methyl)phenyl)diazenyl)benzamide]: the “ratio of 3 μM GABA response amplitudes post- vs. pre-MPC100 treatment” value in test [2] (100 μM MPC100, 10 min, after methyl-(PEG)11-maleimide pre-treatment) is on record as 1.1±0.1. Also, the “potentiation after incubation and washout” value in test [2] (100 μM, ~5-7 min, then Ringer superfusion) is “persistent potentiation of the GABA response”. In addition, the “effect of tethering on potentiating action of diazepam” value in test [2] (data not shown) is “eliminated the potentiating action of diazepam”. For the same compound, the “direct activation of wildtype receptors” value in test [1] (10 μM, no GABA) is given as “negligible”. Also, the “potentiation of the GABA response” value in test [1] is recorded as “smaller than that produced by equimolar trans-dominant MPC088”. Further, the “response to GABA after MPC100 treatment and Ringer perfusion” value in test [1] (wildtype receptors, 100 μM, 7 min) is “not significantly enhanced”.
Turning to `NCc1cc(=O)[nH]o1` [muscimol, reference compound], in test [3], the Hill coefficient n was found to be 0.74 and a half-maximal response (EC50) required 4.8 µM. Further, in test [4], the Hill coefficient n came to 1.2 and the EC50 (commonly the concentration needed to bring the measured effect to its halfway point) was found to be 2 µM.
On the same counts, the results for `O=C(CCCC[C@@H]1SC[C@@H]2NC(=O)N[C@@H]21)NCCCCCC(=O)NCc1cc(O)no1` [muscimol-biotin] are 1.4, 385 µM, 4.4 and 20 µM.
Regarding picrotoxin [reference compound], in test [5], the “reduction of the response to 2 μM GABA+10 μM trans-dominant MPC088” value turned out to be 94±1% and the “reduction of the response to 60 μM trans-dominant MPC088 alone” value amounted to 95±2%. The “reduction of baseline current” value in test [2] (PTX applied to cells treated with 100 μM MPC100 and washed) turned out to be 85±7%. For the same compound, in test [1] (picrotoxin 100 μg, gabazine 30 μg, bicuculline 100 μM (so in the source)), the “effect of antagonist on the MPC088-elicited response” value is “eliminated”.
“methyl-(PEG)11-maleimide [reference compound]”: the “persistent increase in the 3 μM GABA response” value in test [2] (1 mM, 10-min treatment) is 71±25%.
Consider `CCCC(=O)NCc1ccc(/N=N/c2ccc(C(=O)NCCN)cc2)cc1` [MPD021, (E)-N-(2-Aminoethyl)-4-((4-(butyramidomethyl)phenyl)diazenyl)benzamide], for which the “response amplitude relative to the 3 μM GABA response” value was 1.03±0.07 in test [1] (3 μM GABA + 10 μM compound) and 1.03±0.11 in test [1] (3 μM GABA + 100 μM compound). Also, the “potentiation of the GABA response” value in test [1] is on record as “no potentiation of the GABA response”.
As to `CC(C)c1cc(CCCC(=O)NCc2ccc(/N=N/c3ccc(C(=O)O)cc3)cc2)cc(C(C)C)c1O` [compound 18, (E)-4-((4-((4-(4-hydroxy-3,5-diisopropylphenyl)butanamido)methyl)phenyl)diazenyl) benzoic acid], in test [1], the “electrophysiological activity” value was “strong GABAAR potentiation”.
In the case of `CC(C)c1cc(CCCC(=O)Oc2ccc(/N=N/c3ccccc3)cc2)cc(C(C)C)c1O` [compound 14, (E)-4-(phenyldiazenyl) phenyl 4-(4-hydroxy-3,5-diisopropylphenyl) butanoate], in test [1], the “electrophysiological activity” value is reported as “active”.
For the compound “(E)-N-(2-Aminoethyl)-4-((4-((4-(4-hydroxy-3,5-diisopropylphenyl)butanamido)methyl)phenyl)diazenyl)benzamide [MPC088]”, the “electrophysiological activity” value in test [1] is on record as “strong GABAAR potentiation”.

The record behind these values is US9399145B2, “Nanoscale neuromodulating platform for retina neuron activation apparatus and method” (The Board of Trustees of the University of Illinois, priority 2005, dated 2016).
